The CombiSolv-Exp solvation set (Vermeire and Green 2021)

Assay: solvent given as SMILES

Cc1cc(O)ccc1Cl
Conditions	solvation free energy, 298 K [kJ/mol]
in O	-28.4

ClCCl
Conditions	solvation free energy, 298 K [kJ/mol]
in C1CCOC1	-17.9
in C1COCCO1	-17.1
in C=CCCCCCCCCCCCCCC	-11.6
in CC#N	-16.7
in CC(=O)N(C)C	-18.2
in CC(C)=O	-17.3
in CC(C)CC(C)(C)C	-11.9
in CC(C)O	-13.6
in CCC(C)=O	-16.9
in CCCCC	-12.9
in CCCCCCC	-12.2
in CCCCCCCC	-12
in CCCCCCCCC=CCCCCCCCC(=O)OCC(COC(=O)CCCCCCCC=CCCCCCCCC)OC(=O)CCCCCCCC=CCCCCCCCC	-14.1
in CCCCCCCCCCCCCC	-11.2
in CCCCCCCCCCCCCCCC	-11.4
in CCCCCCCCCCCCO	-12.2
in CCCCCCCCN(CCCCCCCC)CCCCCCCC	-11.8
in CCCCCCCCO	-12.9
in CCCCCN(CCCCC)CCCCC	-12.5
in CCCCCO	-13.3
in CCCCCl	-14.9
in CCCCN(C=O)CCCC	-16.4
in CCCCN(CCCC)CCCC	-12
in CCCCO	-13.8
in CCCCOC	-15.8
in CCCCOCCCC	-13.4
in CCCOCCC	-14.7
in CCN1CCCC1=O	-17.9
in CCN(CC)C(C)=O	-17.9
in CCNC(C)=O	-15.6
in CCNC=O	-15.5
in CCO	-14.1
in CCOC(=O)c1ccccc1C(=O)OCC	-14.7
in CCOC(C)=O	-16.9
in CCOCC	-16.2
in CN1CCCC1=O	-17.7
in CN1CCCCC1=O	-18.6
in CNC(C)=O	-15.6
in CO	-14.6
in COC(C)=O	-16.9
in CS(C)=O	-17.3
in Cc1ccc(C)cc1	-14.9
in Cc1cccc(C)c1	-15
in Cc1ccccc1C	-15
in ClC(Cl)(Cl)Cl	-14.1
in ClC(Cl)Cl	-15.1
in ClCCCl	-15.6
in Clc1ccccc1	-14.8
in N#Cc1ccccc1	-15.8
in NC=O	-11.1
in O	-5.52
in O=C1CCCCC1	-17.3
in [2H]O[2H]	-6.28

c1cc2c3c(cccc3c1)CC2
Conditions	solvation free energy, 298 K [kJ/mol]
in C1CCOC1	-41.3
in C1COCCO1	-40.4
in CC(C)(C)O	-35.1
in CC(C)CC(C)(C)C	-36.3
in CC(C)CC(C)O	-35.4
in CC(C)CCCC(C)CCO	-36.4
in CC(C)CCO	-35.3
in CC(C)CO	-35.1
in CC(C)O	-35.1
in CC(C)OC(C)C	-38.1
in CCC(C)(C)O	-36
in CCC(C)O	-35.4
in CCCC(C)CO	-35.8
in CCCC(C)O	-35.6
in CCCCC(CC)CO	-36.2
in CCCCCC	-37.1
in CCCCCCC	-37.2
in CCCCCCCC	-37.2
in CCCCCCCCC=CCCCCCCCC(=O)OCC(COC(=O)CCCCCCCC=CCCCCCCCC)OC(=O)CCCCCCCC=CCCCCCCCC	-38.6
in CCCCCCCCCC	-37.2
in CCCCCCCCCCO	-36.8
in CCCCCCCCO	-36
in CCCCCCCO	-36.6
in CCCCCCO	-36.5
in CCCCCO	-36.3
in CCCCO	-36
in CCCCOC(C)=O	-39.5
in CCCCOCCCC	-38.4
in CCCO	-35.7
in CCO	-35.1
in CCOC(C)=O	-39.5
in CCOCC	-39.2
in CNC=O	-35.6
in CO	-34.4
in COC(C)(C)C	-38.7
in COC(C)=O	-39
in Cc1ccc(C)cc1	-40
in Cc1ccccc1C	-40.9
in ClC(Cl)(Cl)Cl	-40.3
in ClC(Cl)Cl	-41.2
in ClCCCl	-40.9
in O	-13.3

CCCC(O)C(C)C (stereo unspecified)
Conditions	solvation free energy, 298 K [kJ/mol]
in CCCCCCCC	-22.3
in CCCCCCCCCC	-22.8

ClCCBr
Conditions	solvation free energy, 298 K [kJ/mol]
in O	-8.16

CCC(C)C
Conditions	solvation free energy, 298 K [kJ/mol]
in C1=Cc2ccccc2C1	-10.6
in C=CCCCCCCCCCCCCCC	-11.1
in CC#N	-7.95
in CC(=O)N(C)C	-8.28
in CC(C)(C)O	-10.7
in CCCCCCCCCCCCCCCC	-11.5
in CCCCCCCCCOC(=O)c1ccccc1C(=O)OCCCCCCCCC	-9.87
in CCNC(C)=O	-9.29
in CN1CCCC1=O	-7.53
in CN1CCCCC1=O	-8.41
in CN(C)C=O	-7.95
in CN(C)P(=O)(N(C)C)N(C)C	-8.37
in CNC(C)=O	-8.49
in CNC=O	-6.57
in ClC(Cl)C(Cl)Cl	-9.96
in Clc1cccc2ccccc12	-9.37
in Ic1ccccc1	-9.92
in N#CCCCCC#N	-4.44
in N#CCc1ccccc1	-7.45
in N#Cc1ccccc1	-9.25
in O	10
in O=C1CCCCC1	-10.8

CCCCC(=O)CCCC
Conditions	solvation free energy, 298 K [kJ/mol]
in O	-11

O=C(O)c1cccnc1Nc1cccc(C(F)(F)F)c1
Conditions	solvation free energy, 298 K [kJ/mol]
in C1COCCO1	-75
in CC(C)=O	-74.1
in CCCCCCCCO	-71.5
in CCOC(C)=O	-72.4
in CCOCC	-68.9
in CN(C)C=O	-79.7
in Clc1ccccc1	-65
in NC=O	-67.5
in O	-53.7

COc1ccc(C(=O)N(O)c2cccc(Cl)c2)cc1
Conditions	solvation free energy, 298 K [kJ/mol]
in O	-53.6

C=C(C)C1CCC2(CO)CCC3(C)C(CCC4C5(C)CCC(O)C(C)(C)C5CCC43C)C12 (stereo unspecified)
Conditions	solvation free energy, 298 K [kJ/mol]
in CC(C)=O	-117
in CCCCCCO	-114
in CCCCCO	-115
in CCCCO	-117
in CCCO	-116
in CCO	-116
in CCOC(C)=O	-116
in CO	-114
in COC(C)=O	-115
in ClC(Cl)Cl	-119
in ClCCl	-116
in O	-59.3

CC(=O)c1c(C)[nH]n(-c2ccccc2)c1=O
Conditions	solvation free energy, 298 K [kJ/mol]
in O	-41.4

CCNc1nc(NC(C)C(C)C)nc(SC)n1 (stereo unspecified)
Conditions	solvation free energy, 298 K [kJ/mol]
in O	-36.5

O=C(O)CCCCC(=O)O
Conditions	solvation free energy, 298 K [kJ/mol]
in CC(C)(C)O	-57.3
in CC(C)=O	-54.7
in CC(C)O	-56.5
in CCCCO	-55.4
in CCCO	-57.3
in CCO	-57.3
in CO	-58.7
in O	-53.8
in O=C1CCCCC1	-53.8

C=CCC(C)(C)C
Conditions	solvation free energy, 298 K [kJ/mol]
in C=CCCCCCCCCCCCCCC	-15
in O	6.4

CCOC(OCC)Oc1ccccc1
Conditions	solvation free energy, 298 K [kJ/mol]
in O	-21.9

CCCC(C)(O)CC (stereo unspecified)
Conditions	solvation free energy, 298 K [kJ/mol]
in CCCCCCCC	-22.6
in CCCCCCCCCC	-22.3

S
Conditions	solvation free energy, 298 K [kJ/mol]
in Brc1ccccc1	-5.44
in C1CCC2CCCCC2C1	-4.14
in CC1COC(=O)O1	-6.23
in CC(=O)N(C)C	-9.41
in CC(C)=O	-7.95
in CCCCCCCCCCCCCCCC	-3.68
in CN1CCCC1=O	-9.2
in CN(C)C=O	-9.2
in CN(C)P(=O)(N(C)C)N(C)C	-11
in CO	-7.2
in COC(=O)CC#N	-5.65
in COCCOCCO	-7.99
in COCCOCCOC	-8.2
in COCCOCCOCCOC	-7.7
in COCCOCCOCCOCCOC	-8.24
in CS(C)=O	-8.54
in Clc1ccccc1	-6.28
in Nc1ccccc1	-7.11
in O	-2.72
in O=CN1CCOCC1	-7.57
in OCCCOCCCO	-5.19
in OCCO	-4.9
in OCCOCCO	-5.61
in OCCOCCOCCO	-5.52
in OCc1ccccc1	-5.65

Cc1nc(N(C)C)nc(OC(=O)N(C)C)c1C
Conditions	solvation free energy, 298 K [kJ/mol]
in O	-39.4
